# Data: PubChem BioAssay (NCI)
#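 Grown in 96-well plates, cells were treated for 48 hours with each compound at five concentrations. Insufficient inhibition: endpoint recorded as highest concentration tested. The concentration for 50% growth inhibition is given as GI50. TGI: concentration producing complete growth inhibition.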
# Experiments:
# Assay in all cases: inhibition of tumour cell growth, NCI panel, 48 h
# [1] = system: A498 renal
# [2] = system: NCI-H23 lung
# [3] = system: SK-MEL-5 melanoma
# [4] = system: HS 578T breast
# [5] = system: SF-268 CNS
# [6] = system: MALME-3M melanoma
# [7] = system: 786-0 renal
# [8] = system: M14 melanoma
# [9] = system: MDA-MB-231 breast
# [10] = system: HL-60(TB) leukemia
# [11] = system: K-562 leukemia
# [12] = system: OVCAR-5 ovarian
# [13] = system: MDA-MB-435
# [14] = system: OVCAR-4 ovarian
# [15] = system: SK-OV-3 ovarian
# [16] = system: KM12 colon
# [17] = system: MCF7 breast
# [18] = system: COLO 205 colon
# [19] = system: UACC-257 melanoma
# [20] = system: OVCAR-8 ovarian
# [21] = system: NCI-H226 lung
# [22] = system: A549 NSCLC
# [23] = system: HOP-92 NSCLC
# [24] = system: LOX IMVI melanoma
# [25] = system: HT29 colon
# [26] = system: U251 CNS
# [27] = system: T-47D breast
# [28] = system: NCI-H522 lung
# [29] = system: UO-31 renal
# [30] = system: SN12C renal
# [31] = system: SR leukemia
# [32] = system: TK-10 renal
# [33] = system: SK-MEL-28 melanoma
# [34] = system: HCC-2998 colon
# [35] = system: HCT-15 colon
# [36] = system: SW-620 colon
# [37] = system: NCI/ADR-RES ovarian
# [38] = system: SNB-19 CNS
# [39] = system: HCT-116 colon
# [40] = system: HOP-62 NSCLC
# [41] = system: CAKI-1 renal
# [42] = system: CCRF-CEM leukemia
# [43] = system: SNB-75 CNS
# [44] = system: RXF 393 renal
# [45] = system: SK-MEL-2 melanoma
# [46] = system: ACHN renal
# [47] = system: SF-295 CNS
# [48] = system: UACC-62 melanoma
# [49] = system: PC-3 prostate
# [50] = system: MOLT-4 leukemia
# [51] = system: BT-549 breast
# [52] = system: EKVX NSCLC
# [53] = system: RPMI-8226 leukemia
# [54] = system: DU-145 prostate
# [55] = system: NCI-H460 lung
# [56] = system: SF-539 CNS
# [57] = system: IGROV1 ovarian
compound,measurement,setting,value
O=C(NCCN1CCCC1)c1ccc(-c2nc3ccc4[nH]ncc4c3c3c2CCCC3)cc1,GI50,[1],193 nM
same,TGI,[1],911 nM
same,GI50,[2],802 nM
same,TGI,[2],2460 nM
same,GI50,[3],1100 nM
same,TGI,[3],2530 nM
same,GI50,[4],189 nM
same,TGI,[4],1390 nM
same,GI50,[5],703 nM
same,TGI,[5],1790 nM
same,GI50,[6],769 nM
same,TGI,[6],1650 nM
same,GI50,[7],580 nM
same,TGI,[7],1350 nM
same,GI50,[8],729 nM
same,TGI,[8],1550 nM
same,GI50,[9],796 nM
same,TGI,[9],2430 nM
same,GI50,[10],978 nM
same,TGI,[10],2320 nM
same,GI50,[11],760 nM
same,TGI,[11],3880 nM
same,GI50,[12],1390 nM
same,TGI,[12],4440 nM
same,GI50,[13],654 nM
same,TGI,[13],3890 nM
same,GI50,[14],1050 nM
same,TGI,[14],5080 nM
same,GI50,[15],232 nM
same,TGI,[15],2170 nM
same,GI50,[16],237 nM
same,TGI,[16],2910 nM
same,GI50,[17],807 nM
same,TGI,[17],4150 nM
same,GI50,[18],625 nM
same,TGI,[18],1490 nM
same,GI50,[19],1050 nM
same,TGI,[19],2440 nM
same,GI50,[20],798 nM
same,TGI,[20],3160 nM
same,GI50,[21],716 nM
same,TGI,[21],5250 nM
same,GI50,[22],1090 nM
same,TGI,[22],5540 nM
same,GI50,[23],99.7 nM
same,TGI,[23],864 nM
same,GI50,[24],622 nM
same,TGI,[24],1360 nM
same,GI50,[25],996 nM
same,TGI,[25],3510 nM
same,GI50,[26],717 nM
same,TGI,[26],2250 nM
same,GI50,[27],1070 nM
same,TGI,[27],6100 nM
same,GI50,[28],289 nM
same,TGI,[28],1050 nM
same,GI50,[29],1400 nM
same,TGI,[29],6340 nM
same,GI50,[30],882 nM
same,TGI,[30],4460 nM
same,GI50,[31],94.1 nM
same,TGI,[31],1900 nM
same,GI50,[32],443 nM
same,TGI,[32],7360 nM
same,GI50,[33],919 nM
same,TGI,[33],2680 nM
same,GI50,[34],870 nM
same,TGI,[34],2820 nM
same,GI50,[35],1910 nM
same,TGI,[35],7430 nM
same,GI50,[36],607 nM
same,TGI,[36],3140 nM
same,GI50,[37],10700 nM
same,TGI,[37],50000 nM
same,GI50,[38],1130 nM
same,TGI,[38],5060 nM
same,GI50,[39],252 nM
same,TGI,[39],2020 nM
same,GI50,[40],497 nM
same,TGI,[40],2140 nM
same,GI50,[41],199 nM
same,TGI,[41],4380 nM
same,GI50,[42],497 nM
same,TGI,[42],3270 nM
same,GI50,[43],259 nM
same,TGI,[43],1850 nM
same,GI50,[44],241 nM
same,TGI,[44],955 nM
same,GI50,[45],726 nM
same,TGI,[45],1880 nM
same,GI50,[46],1070 nM
same,TGI,[46],5890 nM
same,GI50,[47],1060 nM
same,TGI,[47],4160 nM
same,GI50,[48],1200 nM
same,TGI,[48],5600 nM
same,GI50,[49],682 nM
same,TGI,[49],2770 nM
same,GI50,[50],486 nM
same,TGI,[50],2640 nM
same,GI50,[51],384 nM
same,TGI,[51],1160 nM
same,GI50,[52],850 nM
same,TGI,[52],5150 nM
same,GI50,[53],871 nM
same,TGI,[53],2270 nM
same,GI50,[54],677 nM
same,TGI,[54],5340 nM
same,GI50,[55],628 nM
same,TGI,[55],1570 nM
same,GI50,[56],515 nM
same,TGI,[56],1170 nM
same,GI50,[57],351 nM
same,TGI,[57],4060 nM
